Columns and labels:
[1] = system: human colon cancer cell line (KM20C); assay: KM20C xenograft in nude mice, relative tumor volume; FTD/TPI oral Days 1 to 14, bevacizumab into abdominal cavity twice a week for two weeks; format: in vivo
Description: (§1) A human colon cancer cell line (KM20C) was transplanted onto the right chest of a five to six week-old BALB/cA Jcl-nu mouse. The length (mm) and the breadth (mm) of the tumor after the tumor transplantation were measured, and the tumor volume (TV) was calculated. Then, the mouse was allocated into each group such that the average TV in each group was equal, and the day when the grouping (n=6 to 7) was implemented was assumed to be Day 0.
(§2) The administration dose of the drug was 10 mL/kg, and the FTD/TPI combination drug (a mixture of FTD and TPI at a molar ratio of 1:0.5) was prepared to be 150 mg/kg/day as the dose of FTD.
(§3) As an index of the antitumor effect, the TV in each group was calculated, and the relative tumor volume (RTV) for Day 0 was obtained from the equation below and plotted. The chronological changes of RTV were compared among no treatment group (control), an FTD/TPI combination drug-treated group, a bevacizumab-treated group, and a FTD/TPI combination drug and bevacizumab combination-treated group. In addition, the weight loss as the toxicity was evaluated. TV(mm^3)=(length×breadth^2)/2 RTV=(TV on evaluation day)/(TV on Day 0)

[2] = Body weight change of KM20C-bearing nude mice (toxicity); format: in vivo, mouse
Description: as §1, §2
As an index of the antitumor effect, the TV in each group was calculated, and the relative tumor volume (RTV) for Day 0 was obtained from the equation below and plotted. […] In addition, the weight loss as the toxicity was evaluated. TV(mm^3)=(length×breadth^2)/2 RTV=(TV on evaluation day)/(TV on Day 0)

[3] = system: human breast cancer cell line (MC-2); assay: MC-2 xenograft in nude mice, relative tumor volume and days till RTV reached 2; FTD/TPI and bevacizumab; format: in vivo
Description: as §1, §3
(§4) Next, a test was performed in the same manner using a human breast cancer cell line (MC-2).
With respect to the time period during which the tumor volume doubled from Day 0 (namely, RTV becomes 2), the results of the combination-treated group were predicted from the single agent-treated group of FIGS. 5 and 6. The “length of days till RTV actually reached 2” was calculated under the assumption that RTV on the measurement day when RTV firstly exceeded 2 changes according to a linear function from RTV on the measurement day immediately before the day.

[4] = Body weight change of MC-2-bearing nude mice (toxicity); format: in vivo, mouse; settings: MC-2, Day 15, dose 1.5 mg/kg/day
Description: as §1, §3, §4

[5] = system: human colon cancer cell line (Co-3); assay: Co-3 xenograft in nude mice, relative tumor volume; FTD/TPI oral Days 1 to 14, panitumumab into abdominal cavity twice a week for two weeks; format: in vivo
Description: as §1, with “(Co-3)” for “(KM20C)”, “(n=6)” for “(n=6 to 7)”
(§5) The administration dose of the drug was 10 mL/kg, and the FTD/TPI combination drug (a mixture of FTD and TPI at the molar ratio of 1:0.5) was prepared to be 150 mg/kg/day as the dose of FTD. Panitumumab (Vectibix (registered trademark) injection, Amgen Inc.) was prepared to be 0.30, 0.89, 2.7 and 8 mg/kg/day. The FTD/TPI combination drug was orally administered on Days 1 to 14 every day, and panitumumab was administered into the abdominal cavity for two weeks at a frequency of twice a week from Day 1. To the combination-treated group, the FTD/TPI combination drug and panitumumab were administered in the same doses and the same administration schedules as those of the single agent-treated group.
[…] The chronological changes of RTV were compared of no treatment group (control), the FTD/TPI combination drug-treated group, the panitumumab-treated group and the combination FTD/TPI combination drug and panitumumab treated group. In addition, the weight loss as the toxicity was evaluated.

[6] = Body weight change of Co-3-bearing nude mice, panitumumab study (toxicity); format: in vivo, mouse
Description: as §1, with “(Co-3)” for “(KM20C)”, “(n=6)” for “(n=6 to 7)”
as §5
As an index of the antitumor effect, TV on Days 5, 8, 12 and 15 was calculated in each group, and the relative tumor volume (RTV) for Day 0 was obtained according to the formula of Example 1 and plotted. The chronological changes of RTV were compared of no treatment group (control), the FTD/TPI combination drug-treated group, the panitumumab-treated group and the combination FTD/TPI combination drug and panitumumab treated group. In addition, the weight loss as the toxicity was evaluated.

[7] = MC-2, Day 15, dose 1.5 mg/kg/day
[8] = Co-3, Day 29, dose 0.30 mg/kg/day
[9] = Co-3, Day 29, dose 0.89 mg/kg/day
[10] = Co-3, Day 29, dose 2.7 mg/kg/day

In the case of “Bevacizumab: anti-VEGF humanized monoclonal antibody (Avastin injection, Chugai Pharmaceutical Co., Ltd.)”, the “IR (%) tumor growth inhibition rate” value ([1]; Day 29, dose 0.20 mg/kg/day) is reported as 34.3%, the “RTV (mean ± SD)” value ([1]; Day 29, dose 0.20 mg/kg/day) is reported as 8.93 ± 2.79 and the “IR (%) tumor growth inhibition rate” value ([1]; Day 29, dose 0.55 mg/kg/day) is reported as 28.5%. The “RTV (mean ± SD)” value ([1]; Day 29, dose 0.55 mg/kg/day) was 9.71 ± 4.99, the “IR (%) tumor growth inhibition rate” value ([1]; Day 29, dose 1.7 mg/kg/day) was 39.7% and the “RTV (mean ± SD)” value ([1]; Day 29, dose 1.7 mg/kg/day) was 8.19 ± 2.29. The “IR (%) tumor growth inhibition rate” value ([1]; Day 29, dose 5 mg/kg/day) was 38.6%, the “RTV (mean ± SD)” value ([1]; Day 29, dose 5 mg/kg/day) was 8.34 ± 1.82 and the “Body weight change (%, mean ± SD)” value ([2]; Day 29, dose 0.20 mg/kg/day) was 9.7 ± 5.1%. For the same substance, the “Body weight change (%, mean ± SD)” value ([2]; Day 29, dose 0.55 mg/kg/day) was 3.2 ± 6.0%, the “Body weight change (%, mean ± SD)” value ([2]; Day 29, dose 1.7 mg/kg/day) was 5.2 ± 6.7% and the “IR (%) tumor growth inhibition rate” value [3, 7] was 41.1%. The “RTV (mean ± SD)” value [3, 7] was 3.06 ± 0.88, the “Length of Days (day) till RTV actually reached 2” value ([3]; MC-2, single agent, bevacizumab 1.5 mg/kg/day) was 7.71 days and the “Body weight change (%, mean ± SD)” value [4] was 7.7 ± 3.7%.

For “Panitumumab: anti-EGFR human-type fully monoclonal antibody (Vectibix injection, Amgen Inc.)”, the “IR (%) tumor growth inhibition rate” value [5, 8] was 23.0%, the “RTV (mean ± SD)” value [5, 8] was 18.15 ± 6.79 and the “IR (%) tumor growth inhibition rate” value [5, 9] was 35.9%. For the same substance, the “RTV (mean ± SD)” value [5, 9] was 15.10 ± 7.51, the “IR (%) tumor growth inhibition rate” value [5, 10] was 46.1% and the “RTV (mean ± SD)” value [5, 10] was 12.71 ± 4.37. The “IR (%) tumor growth inhibition rate” value ([5]; Co-3, Day 29, dose 8 mg/kg/day) was 45.0%, the “RTV (mean ± SD)” value ([5]; Co-3, Day 29, dose 8 mg/kg/day) was 12.97 ± 2.33 and the “Body weight change (%, mean ± SD)” value [6, 8] was −11.3 ± 5.3%. For the same substance, the “Body weight change (%, mean ± SD)” value [6, 9] was −6.7 ± 4.3%, the “Body weight change (%, mean ± SD)” value [6, 10] was −1.2 ± 3.1% and the “Body weight change (%, mean ± SD)” value ([6]; Co-3, Day 29, dose 8 mg/kg/day) was −4.5 ± 4.5%.

From US9943537B2, “Antitumor agent and antitumor effect enhancer” (TAIHO PHARMACEUTICAL CO., LTD., priority 2013, dated 2018)
